Reference: ChEMBL document CHEMBL2385054, “Lead optimization of a 4-aminopyridine benzamide scaffold to identify potent, selective, and orally bioavailable TYK2 inhibitors” (J Med Chem, 2013)
Converted amounts (≈) assume the structure as drawn.

Experiments:
physchem [1] = settings: PBS buffer, pH 7.4
in vitro [2] = settings: human, liver microsomes
in vitro [3] = settings: human, plasma
in vitro [4] = settings: dog, MDCK
in vivo [5] = settings: CD1, mouse, iv, 1 mg/kg
in vivo [6] = settings: CD1, mouse
in vivo [7] = settings: Sprague-Dawley, rat, po, 5 mg/kg
in vitro [8] = settings: rat, plasma
in vivo [9] = settings: Sprague-Dawley, rat, iv, 1 mg/kg
in vitro [10] = settings: mouse, liver microsomes
in vivo [11] = settings: Sprague-Dawley, rat
in vitro [12] = settings: mouse, plasma
in vivo [13] = settings: CD1, mouse, plasma, iv, 1 mg/kg
in vivo [14] = settings: CD1, mouse, plasma, iv, 1 mg/kg; remark: listed apart in the source
in vitro [15] = settings: rat, liver microsomes
in vivo [16] = settings: CD1, mouse, plasma, po, 5 mg/kg
in vivo [17] = settings: CD1, mouse, po, 5 mg/kg
physchem [18] = settings: octanol/aqueous buffer, pH 7.4
in vitro [19] = settings: dog, MDCK; remark: listed apart in the source
in vivo [20] = settings: Sprague-Dawley, rat, plasma, iv, 1 mg/kg
in vivo [21] = settings: CD1, mouse, po, 100 mg/kg
in vivo [22] = settings: CD1, mouse, plasma, po, 100 mg/kg
Homo sapiens = species on record: Homo sapiens; settings: 180 nM
[23] = target: Ribosomal protein S6 kinase alpha-2 (Homo sapiens) (UniProt Q15349); settings: 180 nM
Sequence of Ribosomal protein S6 kinase alpha-2 (Homo sapiens) (Q15349 whole entry): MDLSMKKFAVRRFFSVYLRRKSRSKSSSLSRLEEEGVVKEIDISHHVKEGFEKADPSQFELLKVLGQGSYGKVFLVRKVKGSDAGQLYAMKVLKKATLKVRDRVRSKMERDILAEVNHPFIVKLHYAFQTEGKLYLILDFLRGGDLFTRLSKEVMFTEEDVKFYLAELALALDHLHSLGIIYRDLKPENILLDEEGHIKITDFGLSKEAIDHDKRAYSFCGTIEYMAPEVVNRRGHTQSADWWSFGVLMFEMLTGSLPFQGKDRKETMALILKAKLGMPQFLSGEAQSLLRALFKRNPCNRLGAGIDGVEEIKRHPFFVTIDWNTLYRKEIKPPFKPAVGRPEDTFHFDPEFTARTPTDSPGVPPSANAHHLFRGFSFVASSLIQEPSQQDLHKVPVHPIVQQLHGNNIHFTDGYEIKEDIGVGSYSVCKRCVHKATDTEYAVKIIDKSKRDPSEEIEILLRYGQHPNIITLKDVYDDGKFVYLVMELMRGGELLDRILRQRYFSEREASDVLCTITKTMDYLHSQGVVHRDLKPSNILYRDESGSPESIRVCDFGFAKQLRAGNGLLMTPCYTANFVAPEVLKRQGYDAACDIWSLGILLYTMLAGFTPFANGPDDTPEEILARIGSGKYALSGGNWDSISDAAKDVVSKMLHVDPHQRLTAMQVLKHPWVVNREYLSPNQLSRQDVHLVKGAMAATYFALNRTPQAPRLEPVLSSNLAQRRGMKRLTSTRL

in vitro [24] = settings: human, liver microsomes; remark: listed apart in the source
[25] = target: Cyclin-dependent kinase 5 (Homo sapiens) (UniProt Q00535); settings: 180 nM
Sequence of Cyclin-dependent kinase 5 (Homo sapiens) (Q00535 whole entry, looked up): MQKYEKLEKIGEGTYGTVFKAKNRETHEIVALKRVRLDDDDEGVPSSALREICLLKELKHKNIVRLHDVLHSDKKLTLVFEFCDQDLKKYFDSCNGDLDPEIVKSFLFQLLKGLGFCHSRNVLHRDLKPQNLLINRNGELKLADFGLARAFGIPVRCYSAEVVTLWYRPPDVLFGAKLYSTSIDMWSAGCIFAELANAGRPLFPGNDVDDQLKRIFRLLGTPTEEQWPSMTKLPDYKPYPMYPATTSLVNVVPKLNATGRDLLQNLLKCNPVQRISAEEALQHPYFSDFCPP

[26] = target: Ribosomal protein S6 kinase alpha-3 (Homo sapiens) (UniProt P51812); settings: 180 nM
Sequence of Ribosomal protein S6 kinase alpha-3 (Homo sapiens) (P51812 whole entry): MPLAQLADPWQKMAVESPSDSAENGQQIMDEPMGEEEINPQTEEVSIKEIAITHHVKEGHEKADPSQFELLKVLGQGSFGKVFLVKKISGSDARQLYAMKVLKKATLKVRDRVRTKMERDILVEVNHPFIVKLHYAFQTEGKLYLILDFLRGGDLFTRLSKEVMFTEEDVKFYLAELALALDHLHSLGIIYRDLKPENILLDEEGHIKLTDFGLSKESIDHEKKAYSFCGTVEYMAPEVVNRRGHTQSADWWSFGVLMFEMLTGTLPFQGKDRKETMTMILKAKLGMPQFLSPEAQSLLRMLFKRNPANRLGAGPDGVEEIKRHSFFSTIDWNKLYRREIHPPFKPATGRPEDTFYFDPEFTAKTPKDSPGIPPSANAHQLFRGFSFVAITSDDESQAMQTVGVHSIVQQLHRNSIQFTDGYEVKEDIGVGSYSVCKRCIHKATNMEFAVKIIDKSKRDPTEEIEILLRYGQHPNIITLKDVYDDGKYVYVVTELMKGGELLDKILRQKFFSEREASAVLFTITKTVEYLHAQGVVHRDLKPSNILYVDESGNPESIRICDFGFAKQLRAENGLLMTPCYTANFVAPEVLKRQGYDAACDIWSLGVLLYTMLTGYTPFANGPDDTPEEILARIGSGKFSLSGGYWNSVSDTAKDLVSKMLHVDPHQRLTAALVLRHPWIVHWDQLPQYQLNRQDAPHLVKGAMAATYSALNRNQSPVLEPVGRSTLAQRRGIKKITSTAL

[27] = target: Tyrosine-protein kinase Lck (Homo sapiens) (UniProt P06239); settings: 180 nM
Sequence of Tyrosine-protein kinase Lck (Homo sapiens) (P06239 2-509 limits assumed): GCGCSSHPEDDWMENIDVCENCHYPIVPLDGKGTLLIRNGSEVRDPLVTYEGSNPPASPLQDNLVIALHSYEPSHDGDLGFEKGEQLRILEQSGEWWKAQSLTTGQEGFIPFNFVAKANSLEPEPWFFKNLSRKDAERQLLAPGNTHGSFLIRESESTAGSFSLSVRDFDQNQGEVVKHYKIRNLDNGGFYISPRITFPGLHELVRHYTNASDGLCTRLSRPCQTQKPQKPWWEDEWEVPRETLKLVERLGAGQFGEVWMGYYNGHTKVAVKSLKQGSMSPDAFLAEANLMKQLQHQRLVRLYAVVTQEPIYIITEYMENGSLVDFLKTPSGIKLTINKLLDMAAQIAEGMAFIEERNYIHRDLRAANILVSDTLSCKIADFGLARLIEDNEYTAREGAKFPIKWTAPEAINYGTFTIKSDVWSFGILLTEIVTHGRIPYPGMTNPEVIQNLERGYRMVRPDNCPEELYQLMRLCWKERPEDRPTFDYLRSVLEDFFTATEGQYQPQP

[28] = target: Ribosomal protein S6 kinase alpha-6 (Homo sapiens) (UniProt Q9UK32); settings: 180 nM
Sequence of Ribosomal protein S6 kinase alpha-6 (Homo sapiens) (Q9UK32 whole entry): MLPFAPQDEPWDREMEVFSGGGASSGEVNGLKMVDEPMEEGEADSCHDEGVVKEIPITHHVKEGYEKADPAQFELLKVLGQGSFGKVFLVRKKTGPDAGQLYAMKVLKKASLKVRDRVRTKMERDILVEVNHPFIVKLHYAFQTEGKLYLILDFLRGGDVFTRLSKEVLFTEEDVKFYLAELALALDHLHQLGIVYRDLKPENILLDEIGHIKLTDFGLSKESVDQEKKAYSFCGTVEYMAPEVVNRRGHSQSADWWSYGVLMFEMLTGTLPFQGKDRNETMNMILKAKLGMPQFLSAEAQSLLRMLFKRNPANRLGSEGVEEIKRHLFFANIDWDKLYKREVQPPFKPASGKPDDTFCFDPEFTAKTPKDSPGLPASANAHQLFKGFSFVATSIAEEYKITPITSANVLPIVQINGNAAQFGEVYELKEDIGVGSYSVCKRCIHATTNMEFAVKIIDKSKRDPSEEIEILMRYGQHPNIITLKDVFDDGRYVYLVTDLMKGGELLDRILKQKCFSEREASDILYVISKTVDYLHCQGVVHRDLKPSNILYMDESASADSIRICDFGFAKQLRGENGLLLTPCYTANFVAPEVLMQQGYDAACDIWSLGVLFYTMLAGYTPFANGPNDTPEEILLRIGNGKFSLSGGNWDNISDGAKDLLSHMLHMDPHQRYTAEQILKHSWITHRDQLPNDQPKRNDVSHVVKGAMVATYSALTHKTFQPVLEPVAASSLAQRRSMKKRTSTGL

Mus musculus [29] = species on record: Mus musculus; assay: animal or person; settings: C57BL/6, po, read-out: INH
Mus musculus [30] = species on record: Mus musculus; assay: animal or person; settings: C57BL/6, po, read-out: INH; remark: listed apart in the source
Mus musculus [31] = species on record: Mus musculus; assay: animal or person; settings: C57BL/6, po, read-out: INH; remark: listed apart in the source
Mus musculus [32] = species on record: Mus musculus; assay: animal or person; settings: C57BL/6, po, read-out: INH; remark: listed apart in the source

Row | Structure (SMILES) | solubility (physchem [1]) | CLhep predicted (in vitro [2]) | fraction unbound (in vitro [3]) | efflux ratio (in vitro [4]) | bioavailability (in vivo [7]) | fraction unbound (in vitro [8]) | Vd (in vivo [9]) | CLhep predicted (in vitro [10]) | half-life (in vivo [11]) | fraction unbound (in vitro [12]) | CLhep predicted (in vitro [15]) | logD (physchem [18]) | Papp A→B (in vitro [19]) | clearance (in vivo [20]) | Cmax (in vivo [21]) | AUC (in vivo [22]) | further results
1 | O=C(Nc1ccnc(NC(=O)C2CC2)c1)c1c(Cl)cc(-c2nnc[nH]2)cc1Cl | 2 µg/mL (≈ 4.79 µM) |  |  |  |  |  |  |  |  |  |  |  |  |  |  |  | 
2 | O=C(Nc1ccnc(NC(=O)C2CC2)c1)c1c(Cl)cccc1Cl |  | 7 mL/min/kg | 0.049 | 0.4 | 100% | 0.041 | 1.1 L/kg | 64 mL/min/kg | 1.2 h | 0.044 | 16 mL/min/kg | 3.4 | 30 ×10⁻⁶ cm/s | 21 mL/min/kg |  |  | Vd (in vivo [5]): 0.6 L/kg; half-life (in vivo [6]): 0.3 h; clearance (in vivo [13]): 65 mL/min/kg; clearance (in vivo [14]): 65 mL/min/kg; AUC (in vivo [16]): 2.6 µM·h; bioavailability (in vivo [17]): 73%
3 | N#Cc1cc(Cl)c(C(=O)Nc2ccnc(NC(=O)C3CC3)c2)c(Cl)c1 | 64 µg/mL (≈ 171 µM) | 8 mL/min/kg | 0.022 | 1 | 86% | 0.059 | 0.8 L/kg | 38 mL/min/kg | 4.2 h | 0.032 | 12 mL/min/kg | 3.2 | 15 ×10⁻⁶ cm/s | 3.1 mL/min/kg | 119 µM | 818 µM·h | inhibition (Homo sapiens): 68%; inhibition [23]: 80%; metabolised (in vitro [24]): < 2%; inhibition [25]: 61%; Vd (in vivo [5]): 0.9 L/kg; half-life (in vivo [6]): 1 h; inhibition [26]: 73%; inhibition [27]: 61%; clearance (in vivo [14]): 13 mL/min/kg; bioavailability (in vivo [17]): 100%; inhibition [28]: 80%
4 | N#Cc1cc(F)c(C(=O)Nc2ccnc(NC(=O)[C@H]3C[C@H]3F)c2)c(Cl)c1 | 53 µg/mL (≈ 141 µM) | 8 mL/min/kg | 0.134 | 1.5 | 70% | 0.09 | 2.3 L/kg | 34 mL/min/kg | 40 h | 0.05 | 11 mL/min/kg | 2.5 | 11 ×10⁻⁶ cm/s | 1 mL/min/kg | 108 µM | 917 µM·h | inhibition in vivo at 30 mg/kg (Mus musculus [29]): 72%; inhibition in vivo at 70 mg/kg (Mus musculus [30]): 88%; inhibition in vivo at 100 mg/kg (Mus musculus [31]): 77%; inhibition in vivo at 10 mg/kg (Mus musculus [32]): 60%

Further lines, with some results ahead:

Row | solubility (physchem [1]) | CLhep predicted (in vitro [2]) | fraction unbound (in vitro [3]) | efflux ratio (in vitro [4]) | bioavailability (in vivo [7]) | fraction unbound (in vitro [8]) | Vd (in vivo [9]) | CLhep predicted (in vitro [10]) | half-life (in vivo [11]) | fraction unbound (in vitro [12]) | CLhep predicted (in vitro [15]) | logD (physchem [18]) | Papp A→B (in vitro [19]) | clearance (in vivo [20]) | Cmax (in vivo [21]) | AUC (in vivo [22]) | Structure (SMILES) | further results
5 | 74 µg/mL (≈ 188 µM) | 11 mL/min/kg | 0.068 | 1.5 | 100% | 0.082 | 1 L/kg | 36 mL/min/kg | 4.1 h | 0.017 | 10 mL/min/kg | 2.8 | 12 ×10⁻⁶ cm/s | 4.6 mL/min/kg | 143 µM | 1090 µM·h | N#Cc1cc(Cl)c(C(=O)Nc2ccnc(NC(=O)[C@H]3C[C@H]3F)c2)c(Cl)c1 | 
6 | 1 µg/mL (≈ 2.4 µM) |  |  |  |  |  |  |  |  |  |  |  |  |  |  |  | O=C(Nc1ccnc(NC(=O)C2CC2)c1)c1c(Cl)cc(-c2cn[nH]c2)cc1Cl | 
7 | 126 µg/mL (≈ 342 µM) | 11 mL/min/kg | 0.025 | 0.8 | 100% | 0.048 | 1 L/kg | 55 mL/min/kg | 1.8 h | 0.018 | 21 mL/min/kg | 2.9 | 20 ×10⁻⁶ cm/s | 15 mL/min/kg | 47 µM | 50 µM·h | O=C(Nc1ccnc(NC(=O)[C@H]2C[C@H]2F)c1)c1c(Cl)cccc1Cl | 
8 | 28 µg/mL (≈ 79.6 µM) | 4 mL/min/kg | 0.066 | 0.4 | 100% | 0.122 | 1.2 L/kg | 64 mL/min/kg | 0.5 h | 0.036 | 20 mL/min/kg |  | 30 ×10⁻⁶ cm/s | 39 mL/min/kg |  |  | O=C(Nc1ccnc(NC(=O)[C@H]2C[C@H]2F)c1)c1c(F)cccc1Cl | 
